We go through 13 molecules from patent US20220009914A1, “Analogs of Nitrofuran Antibiotics to Combat Resistance” (The Trustees of Indiana University, priority 2020, published 2022).

Each structure is given as a SMILES string. Like-named read-outs stand apart in the source and are kept apart here.

For one experiment, the target named is T1, E. coli GroEL/ES (Escherichia coli, UniProt P0A6F5).
T1 construct: made in house; host or cells: GroEL in NEB 5-alpha E. coli; GroES in E. coli BL21 (DE3)
Nature of the experiment: GroEL/ES-mediated dMDH refolding assay in the presence of E. coli NfsB nitroreductase. The class given is biochemical. Here is the method: Evaluating compounds for inhibition in the GroEL/ES-mediated dMDH refolding assay and native MDH activity counter-screen in the presence of E. coli NfsB nitroreductase. These assays were performed nearly identically to those mentioned above, but with a couple distinct modifications. For both assays, 10 μg/mL of the E. coli NfsB nitroreductase enzyme (Sigma product #N9284) was added to the initial GroEL/ES-dMDH solution. For the GroEL/ES-dMDH refolding assay, after stamping with compounds, 10 μL of a 2.4 mM NADH solution was added, followed by a 10 minute incubation period at 37° C. to bioactivate the nitrofuran analogs. The remainder of the assay was conducted as in our standard protocol where no NfsB nitroreductase was present. […] For the native MDH activity counter-screen in the presence of E. coli NfsB nitroreductase, the assay was performed as described above for the GroEL/ES-dMDH refolding assay with NfsB; however, compound addition to the assay plates was conducted after the EDTA quench step, followed by a 10 minute incubation period at 37° C. to bioactivate the nitrofuran analogs. […] Results presented represent the averages of IC50 values obtained from at least four replicates in each assay.
Evaluating analogs for inhibiting GroEL/ES-mediated substrate refolding functions in the presence of the E. coli NfsB type-1 nitroreductase. […] However, our standard GroEL/ES-mediated refolding assays and native substrate reporter counter-screens were conducted without nitroreductases present.

Another experiment addresses T2, native MDH (Sus scrofa, UniProt P00346).
T2 sequence (P00346 25-338): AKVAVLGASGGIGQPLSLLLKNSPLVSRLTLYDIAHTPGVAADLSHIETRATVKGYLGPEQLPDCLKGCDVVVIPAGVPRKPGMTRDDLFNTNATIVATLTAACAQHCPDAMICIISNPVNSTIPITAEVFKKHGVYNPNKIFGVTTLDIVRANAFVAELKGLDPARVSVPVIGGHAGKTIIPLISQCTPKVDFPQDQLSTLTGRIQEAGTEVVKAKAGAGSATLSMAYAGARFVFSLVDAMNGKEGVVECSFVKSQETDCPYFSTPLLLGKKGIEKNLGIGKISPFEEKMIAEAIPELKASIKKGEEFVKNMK
Nature of the experiment: native MDH activity counter-screen in the presence of E. coli NfsB nitroreductase. The class given is biochemical, pig. As for the experimental part: Evaluating compounds for inhibition in the GroEL/ES-mediated dMDH refolding assay and native MDH activity counter-screen in the presence of E. coli NfsB nitroreductase. These assays were performed nearly identically to those mentioned above, but with a couple distinct modifications. […] The remainder of the assay was conducted as in our standard protocol where no NfsB nitroreductase was present. […] Results presented represent the averages of IC50 values obtained from at least four replicates in each assay.
On the technique in general: Counterscreens check selectivity or assay interference.

For experiment [1], the system named is Enterococcus faecium strain NCTC 7171 (ATCC #19434). Nature of the experiment: bacterial proliferation assay, E. faecium. The class given is cell-based. The following applies: read-out: Bacterial Proliferation EC50 E. faecium. Here is the method: (§1) All compounds were evaluated for inhibiting the proliferation of E. coli and each of the ESKAPE bacteria. Results presented represent the averages of EC50 values obtained from at least four replicates. Evaluating compounds for inhibition of bacterial cell proliferation.
(§2) Growth Media: E. coli were grown with LB medium and all ESKAPE bacteria were grown in Brain Heart Infusion (BHI) medium (Becton, Dickinson and Company), with all liquid cultures supplemented with 25 mg/L Ca^2+ and 12.5 mg/L Mg^2+ to mimic physiological free concentrations of these cations. A 10 mg/mL Ca^2+ stock solution was prepared by dissolving 1.84 g of CaCl2.2H2O in 50 mL of deionized water, and a 10 mg/mL Mg^2+ stock solution was prepared by dissolving 4.18 g of MgCl2.6H2O in 50 mL deionized water—filter sterilized using 0.2 μm cellulose-acetate filters. 2.5 mL of the sterile 10 mg/mL Ca^2+ stock and 1.25 mL of the sterile 10 mg/mL Mg^2+ stock solutions were added per 1 L of autoclaved LB or BHI media to obtain 25 mg/L Ca^2+ and 12.5 mg/L Mg^2+ ions, respectively.
(§3) General Assay Protocol: Stock bacterial cultures were streaked onto LB or BHI agar plates and grown overnight at 37° C. Fresh aliquots of cation supplemented media were inoculated with single bacterial colonies and the cultures were grown overnight at 37° C. with shaking (240 rpm). The following morning, cultures were diluted 10-fold into fresh media and grown at 37° C. until bacteria had reached mid-log phase growth (OD600˜0.4-0.6). The cultures were then diluted into fresh media to achieve final OD600 readings of 0.017. Aliquots of these diluted cultures (30 μL) were added to clear, flat-bottom 384-well polystyrene plates that were previously stamped with 0.5 μL of test compounds in 20 μL of media (yielding initial OD600=0.01 bacterial cultures). All compounds were tested in dose-response with concentration ranges during the proliferation assays from 100 μM to 46 nM (3-fold dilution series). A second set of baseline control plates were prepared analogously, but without any bacteria added, to correct for possible compound absorbance and/or precipitation. […] Plates were then read at 600 nm using a Molecular Devices SpectraMax Plus384 microplate reader. […] Results presented represent the averages of EC50 values obtained from at least four replicates.
(§4) Evaluating analogs for inhibiting the growth of E. coli and the ESKAPE bacteria. Analogs were initially tested for antibacterial efficacy against representative strains of antibiotic-sensitive E. coli and the ESKAPE bacteria. To determine compound efficacy, bacterial proliferation assays were carried out in liquid media culture supplemented with physiological concentrations of free calcium and magnesium cations. For these assays, bacterial cultures (OD600=0.01) were exposed to test compounds in 8-point, 3-fold dilution series (100 μM to 46 nM concentration range), in 384-well plates. After addition of compounds to cultures, the plates were sealed with Breathe-Easy gas permeable membranes and allowed to grow to mid-log phase (OD600˜0.4-0.6), whereupon final OD600 readings were taken to assess for bacterial growth and inhibition.

Experiment [2] has as its system Pseudomonas aeruginosa strain NCTC 10332 (ATCC #10145). As to the kind of experiment: bacterial proliferation assay, P. aeruginosa. Format: cell-based. The following applies: read-out: Bacterial Proliferation EC50 P. aeruginosa. Here is the method:
as §1, §2, §3, §4

The test system of experiment [3] is Enterobacter cloacae strain CDC 442-68 (ATCC #13047). Nature of the experiment: bacterial proliferation assay, E. cloacae. The class given is cell-based. The following applies: ATCC13047, read-out: Bacterial Proliferation EC50 E. cloacae. As for the experimental part:
as §1, §2, §3, §4

Experiment [4] relates to NEB 5-alpha Escherichia coli. Nature of the experiment: bacterial proliferation assay, E. coli. Format: cell-based. The following applies: for EC50: read-out: Bacterial Proliferation EC50 E. coli. Here is the method: as §1, §2, §3, §4
The mark [5] stands for this setting: with E. coli NfsB nitroreductase, read-out: Native MDH Activity w/NfsB IC50.

T1 sequence (P0A6F5 2-548): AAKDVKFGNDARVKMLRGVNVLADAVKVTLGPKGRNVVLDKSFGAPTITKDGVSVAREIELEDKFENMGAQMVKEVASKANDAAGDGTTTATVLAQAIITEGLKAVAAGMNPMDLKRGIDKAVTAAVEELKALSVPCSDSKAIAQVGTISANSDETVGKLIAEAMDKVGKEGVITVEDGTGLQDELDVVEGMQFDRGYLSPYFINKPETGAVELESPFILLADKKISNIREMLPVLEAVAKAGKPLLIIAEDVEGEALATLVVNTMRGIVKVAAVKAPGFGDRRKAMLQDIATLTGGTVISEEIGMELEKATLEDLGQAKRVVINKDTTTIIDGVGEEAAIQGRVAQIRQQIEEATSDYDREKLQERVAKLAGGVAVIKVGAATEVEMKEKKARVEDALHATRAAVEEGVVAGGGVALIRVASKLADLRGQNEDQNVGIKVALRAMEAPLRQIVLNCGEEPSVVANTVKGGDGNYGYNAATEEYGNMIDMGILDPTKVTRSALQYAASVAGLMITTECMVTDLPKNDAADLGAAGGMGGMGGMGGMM

With `O=C(N/N=C/c1ccc([N+](=O)[O-])o1)c1ccc(O)cc1` [Nifuroxazide, reference compound], the “GroEL/ES inhibition in words” value at E. coli GroEL/ES (in the presence of E. coli NfsB) is reported as “weak to moderate GroEL/ES inhibitors”. Also, the IC50 on E. coli GroEL/ES (with E. coli NfsB nitroreductase, read-out: NfsB-GroEL/ES-dMDH Refolding IC50) was 19 µM; on native MDH, greater than 56 µM. In addition, the EC50 is 8.1 µM in experiment [1], greater than 100 µM in experiment [2], 54 µM in experiment [3] and 0.87 µM in experiment [4] (Escherichia coli). Also, the “inhibition of E. coli proliferation in words” value in experiment [4] is “potent inhibitors”.

`O=C(N/N=C/c1ccc(O)c2ncccc12)c1ccncc1` [Compound 6, N′-((8-hydroxyquinolin-5-yl)methylene)isonicotinohydrazide]: the IC50 is greater than 83 µM on E. coli GroEL/ES and greater than 56 µM on native MDH (setting [5]). In addition, the EC50 in experiment [1] was greater than 100 µM; in experiment [2] it was greater than 100 µM; in experiment [3] it was greater than 100 µM; in experiment [4] (Escherichia coli), 79 µM.

As for `O=C(N/N=C/c1ccc(O)c2ncccc12)c1cccc(Oc2ccccc2)c1` [Compound 11, N′-((8-hydroxyquinolin-5-yl)methylene)-3-phenoxybenzohydrazide], the IC50 at E. coli GroEL/ES is 21 µM; at native MDH (setting [5]), greater than 56 µM. Also, the EC50 in experiment [1], in experiment [2], in experiment [3] and in experiment [4] (Escherichia coli) was greater than 100 µM throughout.

Regarding `COc1ccc(C(=O)N/N=C/c2ccc(O)c3ccccc23)cc1` [Compound 29, N′-((4-hydroxynaphthalen-1-yl)methylene)-4-methoxybenzohydrazide], the IC50 was greater than 83 µM at E. coli GroEL/ES and greater than 56 µM at native MDH (setting [5]). The EC50 in experiment [1], in experiment [2], in experiment [3] and in experiment [4] (Escherichia coli) was greater than 100 µM each time.

As for `O=C(N/N=C/c1ccc(O)c2ncccc12)c1cccc2ccccc12` [Compound 9, N′-((8-hydroxyquinolin-5-yl)methylene)-1-naphthohydrazide], the IC50 is 7.7 µM at E. coli GroEL/ES and greater than 56 µM on native MDH (setting [5]). Further, the EC50 in experiment [1], in experiment [2], in experiment [3] and in experiment [4] (Escherichia coli) was greater than 100 µM in each case.

With `COc1ccc(C(=O)N/N=C/c2ccco2)cc1` [Compound 39, N′-(furan-2-ylmethylene)-4-methoxybenzohydrazide], the IC50 on E. coli GroEL/ES was greater than 83 µM; at native MDH (setting [5]), greater than 56 µM. In addition, the EC50 in experiment [1], in experiment [2], in experiment [3] and in experiment [4] (Escherichia coli) was greater than 100 µM throughout.

As to `CN(C)c1ccc(C(=O)N/N=C/c2ccc(O)c3ncccc23)cc1` [Compound 8, 4-(dimethylamino)-N′-((8-hydroxyquinolin-5-yl)methylene)benzohydrazide], the figures for the IC50 on E. coli GroEL/ES and at native MDH (setting [5]) were 25 µM and greater than 56 µM, respectively. Further, the EC50 in experiment [1] was greater than 100 µM; in experiment [2], greater than 100 µM; in experiment [3] it was greater than 100 µM; in experiment [4] (Escherichia coli), 93 µM.

In the case of `O=C(N/N=C/c1ccccc1)c1ccccc1` [Compound 38, N′-benzylidenebenzohydrazide], the IC50 was greater than 83 µM at E. coli GroEL/ES and greater than 56 µM at native MDH (setting [5]). Also, the EC50 in experiment [1], in experiment [2], in experiment [3] and in experiment [4] (Escherichia coli) was greater than 100 µM each time.

Turning to `O=C(N/N=C/c1ccc(O)c2ncccc12)c1cccs1` [Compound 3, N′-((8-hydroxyquinolin-5-yl)methylene)thiophene-2-carbohydrazide], the IC50 is 29 µM on E. coli GroEL/ES and greater than 56 µM on native MDH (setting [5]). The EC50 in experiment [1] was greater than 100 µM; in experiment [2], greater than 100 µM; in experiment [3] it was 92 µM; in experiment [4] (Escherichia coli), 77 µM.

Turning to `CCOc1ccc(S(=O)(=O)Nc2ccc(C(=O)N/N=C/c3ccc([N+](=O)[O-])o3)cc2)cc1` [Compound 28, 4-ethoxy-N-(4-(2-((5-nitrofuran-2-yl)methylene)hydrazine-1-carbonyl)phenyl)benzenesulfonamide], the values for the IC50 at E. coli GroEL/ES and at native MDH (setting [5]) were 39 µM and greater than 56 µM, respectively. Also, the EC50 in experiment [1], in experiment [2], in experiment [3] and in experiment [4] (Escherichia coli) was greater than 100 µM in each case.

As for `O=C(N/N=C/c1ccc([N+](=O)[O-])o1)c1cccc(Oc2ccccc2)c1` [Compound 24, N′-((5-nitrofuran-2-yl)methylene)-3-phenoxybenzohydrazide], the values for the IC50 on E. coli GroEL/ES and on native MDH (setting [5]) were 2.8 µM and greater than 56 µM, respectively. Besides, the EC50 in experiment [1] was 11 µM; in experiment [2], greater than 100 µM; in experiment [3] it was greater than 100 µM; in experiment [4] (Escherichia coli), greater than 100 µM.

For `O=C(N/N=C/c1ccc(O)c2ncccc12)c1ccc(NS(=O)(=O)c2ccc(Br)cc2)cc1` [Compound 14, 4-bromo-N-(4-(2-((8-hydroxyquinolin-5-yl)methylene)hydrazine-1-carbonyl)phenyl)benzenesulfonamide], the IC50 was 3.6 µM on E. coli GroEL/ES and greater than 56 µM at native MDH (setting [5]). The EC50 in experiment [1] is greater than 100 µM; in experiment [2], greater than 100 µM; in experiment [3], greater than 100 µM; in experiment [4] (Escherichia coli), no less than 100 µM; in experiment [4], greater than 100 µM.

With `COc1ccc(C(=O)N/N=C/c2ccccc2)cc1` [Compound 37, N′-benzylidene-4-methoxybenzohydrazide], the IC50 at E. coli GroEL/ES was greater than 83 µM; at native MDH (setting [5]), greater than 56 µM. Moreover, the EC50 in experiment [1], in experiment [2], in experiment [3] and in experiment [4] (Escherichia coli) was greater than 100 µM in each case.
